Measured values: the supplement of paper PMC10307832

Key:
Test in all cases: relative viability (nuclei count vs DMSO), 5 days (fraction); higher = more cells survive
201T = test system: 201T
Method in brief: (§1)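 Five library-drug doses in √10 steps were combined with a fixed anchor-drug dose, or a single drug was given alone, by pin tool to lung cancer cell lines in 1536-well plates the day after seeding. Nuclei were stained and counted after 5 days. Relative viability is the nuclei count in treated wells over that in vehicle wells, taken as the median of duplicate plates.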

NCI-H441 = test system: NCI-H441
Method in brief: as §1

NCI-H838 = test system: NCI-H838
Method in brief: as §1

HCC-366 = test system: HCC-366
Method in brief: as §1

CAL-12T = test system: CAL-12T
Method in brief: as §1

EKVX = test system: EKVX
Method in brief: as §1

LK-2 = test system: LK-2
Method in brief: as §1

ABC-1 = test system: ABC-1
Method in brief: as §1

LU99A = test system: LU99A
Method in brief: as §1

COR-L 105 = test system: COR-L 105
Method in brief: as §1

HARA = test system: HARA
Method in brief: as §1

NCI-H727 = test system: NCI-H727
Method in brief: as §1

NCI-H661 = test system: NCI-H661
Method in brief: as §1

NCI-H2170 = test system: NCI-H2170
Method in brief: as §1

NCI-H2009 = test system: NCI-H2009
Method in brief: as §1

PC-14 = test system: PC-14
Method in brief: as §1

NCI-H3122 = test system: NCI-H3122
Method in brief: as §1

COR-L23 = test system: COR-L23
Method in brief: as §1

NCI-H1666 = test system: NCI-H1666
Method in brief: as §1

SW 900 = test system: SW 900
Method in brief: as §1

BEN = test system: BEN
Method in brief: as §1

NCI-H1650 = test system: NCI-H1650
Method in brief: as §1

NCI-H1437 = test system: NCI-H1437
Method in brief: as §1

NC(=O)Nc1cc(-c2cccc(F)c2)sc1C(=O)N[C@H]1CCCNC1 [AZD7762] + N=C(N)NC(=N)NCCc1ccccc1 [Phenformin] (partner 250 µM)
relative viability (201T; first compound 0.01 µM): 0.465
relative viability (201T; first compound 0.03162 µM): 0.406
relative viability (201T; first compound 0.1 µM): 0.453
relative viability (201T; first compound 0.3162 µM): 0.495
relative viability (201T; first compound 1 µM): 0.442
relative viability (NCI-H441; first compound 0.01 µM): 1.05
relative viability (NCI-H441; first compound 0.03162 µM): 0.732
relative viability (NCI-H441; first compound 0.1 µM): 0.91
relative viability (NCI-H441; first compound 0.3162 µM): 1.04
relative viability (NCI-H441; first compound 1 µM): 0.618
relative viability (NCI-H838; first compound 0.01 µM): 0.538
relative viability (NCI-H838; first compound 0.03162 µM): 0.566
relative viability (NCI-H838; first compound 0.1 µM): 0.669
relative viability (NCI-H838; first compound 0.3162 µM): 0.524
relative viability (NCI-H838; first compound 1 µM): 0.164
relative viability (HCC-366; first compound 0.01 µM): 0.601
relative viability (HCC-366; first compound 0.03162 µM): 0.615
relative viability (HCC-366; first compound 0.1 µM): 0.627
relative viability (HCC-366; first compound 0.3162 µM): 0.485
relative viability (HCC-366; first compound 1 µM): 0.312
relative viability (CAL-12T; first compound 0.01 µM): 0.605
relative viability (CAL-12T; first compound 0.03162 µM): 0.559
relative viability (CAL-12T; first compound 0.1 µM): 0.571
relative viability (CAL-12T; first compound 0.3162 µM): 0.321
relative viability (CAL-12T; first compound 1 µM): 0.114
relative viability (EKVX; first compound 0.01 µM): 0.194
relative viability (EKVX; first compound 0.03162 µM): 0.244
relative viability (EKVX; first compound 0.1 µM): 0.245
relative viability (EKVX; first compound 0.3162 µM): 0.229
relative viability (EKVX; first compound 1 µM): 0.206
relative viability (LK-2; first compound 0.01 µM): 0.396
relative viability (LK-2; first compound 0.03162 µM): 0.75
relative viability (LK-2; first compound 0.1 µM): 0.384
relative viability (LK-2; first compound 0.3162 µM): 0.45
relative viability (LK-2; first compound 1 µM): 0.31
relative viability (ABC-1; first compound 0.01 µM): 0.273
relative viability (ABC-1; first compound 0.03162 µM): 0.249
relative viability (ABC-1; first compound 0.1 µM): 0.268
relative viability (ABC-1; first compound 0.3162 µM): 0.203
relative viability (ABC-1; first compound 1 µM): 0.19
relative viability (LU99A; first compound 0.01 µM): 0.777
relative viability (LU99A; first compound 0.03162 µM): 0.934
relative viability (LU99A; first compound 0.1 µM): 0.868
relative viability (LU99A; first compound 0.3162 µM): 0.795
relative viability (LU99A; first compound 1 µM): 0.512
relative viability (COR-L 105; first compound 0.01 µM): 0.5
relative viability (COR-L 105; first compound 0.03162 µM): 0.491
relative viability (COR-L 105; first compound 0.1 µM): 0.477
relative viability (COR-L 105; first compound 0.3162 µM): 0.429
relative viability (COR-L 105; first compound 1 µM): 0.254
relative viability (HARA; first compound 0.01 µM): 0.569
relative viability (HARA; first compound 0.03162 µM): 0.509
relative viability (HARA; first compound 0.1 µM): 0.501
relative viability (HARA; first compound 0.3162 µM): 0.282
relative viability (HARA; first compound 1 µM): 0.138
relative viability (NCI-H727; first compound 0.01 µM): 0.465
relative viability (NCI-H727; first compound 0.03162 µM): 0.548
relative viability (NCI-H727; first compound 0.1 µM): 0.439
relative viability (NCI-H727; first compound 0.3162 µM): 0.398
relative viability (NCI-H727; first compound 1 µM): 0.262
relative viability (NCI-H661; first compound 0.01 µM): 0.272
relative viability (NCI-H661; first compound 0.03162 µM): 0.269
relative viability (NCI-H661; first compound 0.1 µM): 0.232
relative viability (NCI-H661; first compound 0.3162 µM): 0.265
relative viability (NCI-H661; first compound 1 µM): 0.262
relative viability (NCI-H2170; first compound 0.01 µM): 0.411
relative viability (NCI-H2170; first compound 0.03162 µM): 0.41
relative viability (NCI-H2170; first compound 0.1 µM): 0.471
relative viability (NCI-H2170; first compound 0.3162 µM): 0.384
relative viability (NCI-H2170; first compound 1 µM): 0.423
relative viability (NCI-H2009; first compound 0.01 µM): 0.496
relative viability (NCI-H2009; first compound 0.03162 µM): 0.535
relative viability (NCI-H2009; first compound 0.1 µM): 0.535
relative viability (NCI-H2009; first compound 0.3162 µM): 0.543
relative viability (NCI-H2009; first compound 1 µM): 0.439
relative viability (PC-14; first compound 0.01 µM): 0.652
relative viability (PC-14; first compound 0.03162 µM): 0.611
relative viability (PC-14; first compound 0.1 µM): 0.459
relative viability (PC-14; first compound 0.3162 µM): 0.305
relative viability (PC-14; first compound 1 µM): 0.213
relative viability (NCI-H3122; first compound 0.01 µM): 0.389
relative viability (NCI-H3122; first compound 0.03162 µM): 0.412
relative viability (NCI-H3122; first compound 0.1 µM): 0.416
relative viability (NCI-H3122; first compound 0.3162 µM): 0.341
relative viability (NCI-H3122; first compound 1 µM): 0.317
relative viability (COR-L23; first compound 0.01 µM): 0.458
relative viability (COR-L23; first compound 0.03162 µM): 0.446
relative viability (COR-L23; first compound 0.1 µM): 0.515
relative viability (COR-L23; first compound 0.3162 µM): 0.349
relative viability (COR-L23; first compound 1 µM): 0.131
relative viability (NCI-H1666; first compound 0.01 µM): 0.549
relative viability (NCI-H1666; first compound 0.03162 µM): 0.596
relative viability (NCI-H1666; first compound 0.1 µM): 0.532
relative viability (NCI-H1666; first compound 0.3162 µM): 0.554
relative viability (NCI-H1666; first compound 1 µM): 0.467
relative viability (SW 900; first compound 0.01 µM): 0.777
relative viability (SW 900; first compound 0.03162 µM): 0.746
relative viability (SW 900; first compound 0.1 µM): 0.65
relative viability (SW 900; first compound 0.3162 µM): 0.579
relative viability (SW 900; first compound 1 µM): 0.29
relative viability (BEN; first compound 0.01 µM): 0.316
relative viability (BEN; first compound 0.03162 µM): 0.271
relative viability (BEN; first compound 0.1 µM): 0.222
relative viability (BEN; first compound 0.3162 µM): 0.266
relative viability (BEN; first compound 1 µM): 0.245
relative viability (NCI-H1650; first compound 0.01 µM): 0.51
relative viability (NCI-H1650; first compound 0.03162 µM): 0.48
relative viability (NCI-H1650; first compound 0.1 µM): 0.439
relative viability (NCI-H1650; first compound 0.3162 µM): 0.252
relative viability (NCI-H1650; first compound 1 µM): 0.18
relative viability (NCI-H1437; first compound 0.01 µM): 0.304
relative viability (NCI-H1437; first compound 0.03162 µM): 0.225
relative viability (NCI-H1437; first compound 0.1 µM): 0.328
relative viability (NCI-H1437; first compound 0.3162 µM): 0.343
relative viability (NCI-H1437; first compound 1 µM): 0.279
